Source: paper PMC10713630, “Elucidation of the structural basis for ligand binding and translocation in conserved insect odorant receptor co-receptors” (Nature Communications, 2023)
Where “and” joins values, the source holds several entries; their conditions need not be identical. Equal entries are not always repeated. Entries after “also recorded” stand apart in the source; their conditions may differ.

How the values were obtained:
[1] = target: DmelOrco K373E (Drosophila melanogaster, UniProt Q9VNB5, K373E); experiment: TEVC recording of VUAA1-induced current, DmelOrco K373E in Xenopus oocytes; assay type: cell-based; parameters: VUAA1-induced current, K373E: unit not given here
DmelOrco K373E, sequence (Q9VNB5 whole entry K373E, the tested form may be a part): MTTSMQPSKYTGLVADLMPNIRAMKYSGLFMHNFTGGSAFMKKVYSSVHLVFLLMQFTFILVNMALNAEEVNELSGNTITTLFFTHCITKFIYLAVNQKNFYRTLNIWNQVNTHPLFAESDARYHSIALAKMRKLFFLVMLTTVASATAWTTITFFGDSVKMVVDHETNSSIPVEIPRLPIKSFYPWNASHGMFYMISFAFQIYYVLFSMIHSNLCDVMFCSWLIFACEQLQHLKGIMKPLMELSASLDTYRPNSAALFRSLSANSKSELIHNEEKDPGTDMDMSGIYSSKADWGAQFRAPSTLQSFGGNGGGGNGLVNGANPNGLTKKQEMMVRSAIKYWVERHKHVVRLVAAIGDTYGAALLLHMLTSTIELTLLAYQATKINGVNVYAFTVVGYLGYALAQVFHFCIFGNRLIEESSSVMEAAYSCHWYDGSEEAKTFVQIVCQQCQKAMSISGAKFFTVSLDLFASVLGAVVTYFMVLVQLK
Text: (§1) All Orco gene sequences were optimized[63] for protein expression in Xenopus laevis oocytes with the GenSmartTM Codon optimization Tool and subcloned into a pGEMHE-derived vector. The wildtype gene of Drosophila melanogaster Orco (DmelOrco) was synthesized by Genscript and subcloned with XmaI/XhoI cloning sites. Site-directed mutagenesis of DmelOrco was done by PCR with the Q5® site directed mutagenesis kit (NEB) using primers optimized with the NEBase Changer online tool and following the supplier’s protocol. After transformation of commercial competent bacteria (XL10 Gold) by standard heat-shock protocol and overnight culture in ampicillin-containing LB plates, positive clones were identified by electrophoretic restriction profile and external sequencing (Genewiz). DNAs of positive clones were amplified with Qiagen MidiPrep Kit and the ORF was fully sequenced. For in vitro transcription, DNAs were linearized with restriction enzyme NotI that cuts a unique site in the 3′ region of the polyA tail. […] DNA and RNA were analyzed by agarose-gel electrophoresis and quantified by spectrophotometry. […]
(§2) Whole cell currents were recorded with the two-electrode voltage-clamp (TEVC) technique with the HiClamp robot (MultiChannel System). […] Data were extracted with M. Vivaudou’s programs[65] and statistically analyzed with Prism 8 (Graphpad).

[2] = target: DmelOrco Y397S (Drosophila melanogaster, UniProt Q9VNB5, Y397S); experiment: TEVC recording of VUAA1-induced current, DmelOrco Y397S in Xenopus oocytes; assay type: cell-based
DmelOrco Y397S, sequence (Q9VNB5 whole entry Y397S, the tested form may be a part): as the sequence (Q9VNB5 whole entry K373E, the tested form may be a part) above, with E373K, Y397S counted along it
Text: as §1, §2

[3] = target: DmelOrco L141W (Drosophila melanogaster, UniProt Q9VNB5, L141W); experiment: TEVC recording of VUAA1-induced current, DmelOrco L141W in Xenopus oocytes; assay type: cell-based; conditions: 500 µM VUAA1, TEVC
DmelOrco L141W, sequence (Q9VNB5 whole entry L141W, the tested form may be a part): as the sequence (Q9VNB5 whole entry K373E, the tested form may be a part) above, with L141W, E373K counted along it
Text: as §1, with “sequenced.” for “sequenced. For in vitro transcription, DNAs were linearized with restriction enzyme NotI that cuts a unique site in the 3′ region of the polyA tail.”
Whole cell currents were recorded with the two-electrode voltage-clamp (TEVC) technique with the HiClamp robot (MultiChannel System). […] Data were extracted with M. Vivaudou’s programs[65] and statistically analyzed with Prism 8 (Graphpad). […]
100 by 500 µM of the ligand VUAA1 and measured by TEVC recordings on DmelOrco WT and mutants […]

[4] = target: DmelOrco S146A (Drosophila melanogaster, UniProt Q9VNB5, S146A); experiment: TEVC recording of VUAA1-induced current, DmelOrco S146A in Xenopus oocytes; assay type: cell-based
DmelOrco S146A, sequence (Q9VNB5 whole entry S146A, the tested form may be a part): as the sequence (Q9VNB5 whole entry K373E, the tested form may be a part) above, with S146A, E373K counted along it
Text: as §1, §2

[5] = target: DmelOrco M210L (Drosophila melanogaster, UniProt Q9VNB5, M210L); experiment: TEVC recording of VUAA1-induced current, DmelOrco M210L in Xenopus oocytes; assay type: cell-based; conditions: 500 µM VUAA1, TEVC
DmelOrco M210L, sequence (Q9VNB5 whole entry M210L, the tested form may be a part): as the sequence (Q9VNB5 whole entry K373E, the tested form may be a part) above, with M210L, E373K counted along it
Text: as §1, §2

[6] = target: DmelOrco I181S (Drosophila melanogaster, UniProt Q9VNB5, I181S); experiment: TEVC recording of VUAA1-induced current, DmelOrco I181S in Xenopus oocytes; assay type: cell-based; parameters: VUAA1-induced current, i181S / VUAA1-induced current, I181S: unit not given here; conditions: for VUAA1-induced current, I181S: Fig.4i dose-response
DmelOrco I181S, sequence (Q9VNB5 whole entry I181S, the tested form may be a part): as the sequence (Q9VNB5 whole entry K373E, the tested form may be a part) above, with I181S, E373K counted along it
Text: (§3) All Orco gene sequences were optimized[63] for protein expression in Xenopus laevis oocytes with the GenSmartTM Codon optimization Tool and subcloned into a pGEMHE-derived vector. The wildtype gene of Drosophila melanogaster Orco (DmelOrco) was synthesized by Genscript and subcloned with XmaI/XhoI cloning sites. Site-directed mutagenesis of DmelOrco was done by PCR with the Q5® site directed mutagenesis kit (NEB) using primers optimized with the NEBase Changer online tool and following the supplier’s protocol. After transformation of commercial competent bacteria (XL10 Gold) by standard heat-shock protocol and overnight culture in ampicillin-containing LB plates, positive clones were identified by electrophoretic restriction profile and external sequencing (Genewiz). DNAs of positive clones were amplified with Qiagen MidiPrep Kit and the ORF was fully sequenced. For in vitro transcription, DNAs were linearized with restriction enzyme NotI that cuts a unique site in the 3′ region of the polyA tail. The linearized DNAs were purified by the standard phenol:chloroform extraction method and transcribed into mRNA using the T7 ultra mMessage mMachine kit (Thermo Fisher Scientific). mRNAs were purified with the NucleoSpin RNA plus XS kit (Machery-Nagel). DNA and RNA were analyzed by agarose-gel electrophoresis and quantified by spectrophotometry.
(§4) Xenopus laevis oocytes were prepared, as previously described. Briefly, oocytes were defolliculated after surgical retrieval by type 1 A collagenase over 2-3 h under smooth horizontal agitation. They were manually selected and incubated at 19 °C in modified-Barth’s solution (1 mM KCl, 0.82 mM MgSO4, 88 mM NaCl, 2.4 mM NaHCO3, 0.41 mM CaCl2, Ca(NO3)2 0.3 mM, 16 mM HEPES, pH 7.4) supplemented with 100 U mL^−1 of penicillin and streptomycin and 0.1 mg mL^−1 of gentamycin. Each oocyte was micro-injected with the Nanoject instrument (Drummond) with 50 nL of 20 ng of mRNA coding for the Orco of interest. Injected oocytes were incubated individually in 96-well plates for 4 days at 19 °C in the same buffer. Different batches of oocytes have been tested per construct. The results of the mutants of interest have been confirmed by a second set of experiments comparing the amplitudes with WT in the same day and from the same batch of oocytes (Supplementary Fig. 11).
(§5) Whole cell currents were recorded with the two-electrode voltage-clamp (TEVC) technique with the HiClamp robot (MultiChannel System). Microelectrodes were filled with 3 M KCl. The high K^+ buffer used for recordings was composed of 91 mM KCl, 1 mM MgCl2, 1.8 mM CaCl2, 5 mM HEPES, pH 7.4. Membrane voltage was clamped to −50 mV and VUAA1 was applied for 60 s. Data were extracted with M. Vivaudou’s programs[65] and statistically analyzed with Prism 8 (Graphpad).

[7] = target: DmelOrco Y400A (Drosophila melanogaster, UniProt Q9VNB5, Y400A); experiment: TEVC recording of VUAA1-induced current, DmelOrco Y400A in Xenopus oocytes; assay type: cell-based; conditions: 500 µM VUAA1, TEVC
DmelOrco Y400A, sequence (Q9VNB5 whole entry Y400A, the tested form may be a part): as the sequence (Q9VNB5 whole entry K373E, the tested form may be a part) above, with E373K, Y400A counted along it
Text: as §1, §2

[8] = target: DmelOrco T80W (Drosophila melanogaster, UniProt Q9VNB5, T80W); experiment: TEVC recording of VUAA1-induced current, DmelOrco T80W in Xenopus oocytes; assay type: cell-based; parameters: VUAA1-induced current, T80W: unit not given here; conditions: for VUAA1-induced current, T80W: individual oocytes
DmelOrco T80W, sequence (Q9VNB5 whole entry T80W, the tested form may be a part): as the sequence (Q9VNB5 whole entry K373E, the tested form may be a part) above, with T80W, E373K counted along it
Text: as §3, §4, §5

[9] = test system: MhraOR5; parameters: method as in PMID 34349260; conditions: cited from earlier work

CCc1ccc(NC(=O)CSc2nnc(-c3cccnc3)n2CC)cc1 [VUAA1, N-(4-ethylphenyl)−2-((4-ethyl-5-(3-pyridinyl)−4H-1,2,4-triazol-3-yl)thio)acetamide]
Current induced by VUAA1 (median) ([1]; 500 µM VUAA1, TEVC, K373E): 7.47 µA
VUAA1-induced current, K373E ([1]; Fig.4b, individual oocytes): 4.46 and 4.23 and 7.21 and 7.53 and 6.82 and 10.02 and 4.07 and 5.42 and 9.17 and 11.32 and 9.58 and 7.4 and 16.4 and 9.48 and 7.37 and 12.12
Response to VUAA1 compared with WT ([2]; 500 µM VUAA1, TEVC, Y397S): no significant effect; also recorded: did not significantly change the amplitude of activation
VUAA1-induced current, Y397S ([2]; Fig.4b, individual oocytes): 0.98 and 1.78 and 4.23 and 0.82 and 0.77 and 1.48 and 8.3 and 6.29 and 5.87 and 5.52 and 1.76 and 2.18 and 1.83
Response to VUAA1 compared with WT [3]: did not induce significant change
Current induced by VUAA1 (median) ([4]; 500 µM VUAA1, TEVC, S146A): 7.55 µA
Effect on VUAA1-induced channel response ([4]; DmelOrco S146A): I
Current induced by VUAA1 (median) [5]: 6.19 µA
EC50 [6]: 102 µM
Current induced by VUAA1 (median) ([6]; 500 µM VUAA1, TEVC, I181S): 1.40 µA
Response to VUAA1 compared with WT ([6]; 500 µM VUAA1, TEVC, I181S): clear loss of VUAA1 activation
VUAA1-induced current, i181S ([6]; Fig.4b, individual oocytes): 1.9 and 2 and 1.3 and 0.38 and 0.78 and 1.7 and 1.5 and 2.2 and 2.1 and 1.2 and 1.4 and 0.46 and 1.1 and 1.8 and 2.3
VUAA1-induced current, I181S ([6]; VUAA1 10 µM (Log(M) -5), individual oocytes): 0.26 and 0.25 and 0.11
VUAA1-induced current, I181S ([6]; VUAA1 25 µM (Log(M) -4.6), individual oocytes): 0.22 (2×) and 0.2 and 0.06 and 0.1 and 0.03 and 0.21 and 0.09
VUAA1-induced current, I181S ([6]; VUAA1 50 µM (Log(M) -4.3), individual oocytes): 0.39 and 0.35 and 0.1 and 0.28 and 0.07 and 0.3 and 0.34 and 0.19
VUAA1-induced current, I181S ([6]; VUAA1 100 µM (Log(M) -4), individual oocytes): 1.03 and 0.88 and 0.21 and 0.74 and 0.26 and 0.4 and 0.43 and 0.32
VUAA1-induced current, I181S ([6]; VUAA1 500 µM (Log(M) -3.3), individual oocytes): 1.45 and 1.2 and 0.29 and 2.29 and 0.87 and 0.44 and 0.47 and 0.39
VUAA1-induced current, I181S ([6]; VUAA1 1000 µM (Log(M) -3), individual oocytes): 1.69 and 1.33 and 0.34 and 1.97 and 0.83 and 0.44 and 0.5 and 0.43
Imax ([6]; concentration-effect curve of VUAA1, TEVC, I181S): 0.94 µA
Response to VUAA1 compared with WT [7]: did not significantly change the response
Response to VUAA1 compared with WT ([8]; 500 µM VUAA1, TEVC, T80W): significantly reduced or abolished the activation
VUAA1-induced current, T80W ([8]; Fig.4b): 0.01 and 0.63 and 0.07 and 0.04 and 0.05 and 0.57 and 0.84 and 0.02
VUAA1-induced current, T80W ([8]; Fig.4i dose-response, VUAA1 10 µM (Log(M) -5)): 0.03 and 0.06 (2×) and 0.07 and 0.2 (2×) and 0 and 0.12
VUAA1-induced current, T80W ([8]; Fig.4i dose-response, VUAA1 25 µM (Log(M) -4.6)): 0.05 and 0.08 and 0.11 and 0.35 and 0.01 and 0.07 and 0.14 and 0.15
VUAA1-induced current, T80W ([8]; Fig.4i dose-response, VUAA1 50 µM (Log(M) -4.3)): 0.09 and 0.1 and 0.13 and 0.45 and 0.01 and 0.05 and 0.31 and 0.15
VUAA1-induced current, T80W ([8]; Fig.4i dose-response, VUAA1 100 µM (Log(M) -4)): 0.12 and 0.1 and 0.13 (2×) and 0.42 and 0 and 0.08 and 0.29
VUAA1-induced current, T80W ([8]; Fig.4i dose-response, VUAA1 500 µM (Log(M) -3.3)): 0.19 and 0.12 (3×) and 0.14 and 0.45 and 0.01 and 0.07
VUAA1-induced current, T80W ([8]; Fig.4i dose-response, VUAA1 1000 µM (Log(M) -3)): 0.26 and 0.16 and 0.18 and 0.47 and 0.02 and 0.23 and 0.31 and 0.1
Imax ([8]; concentration-effect curve of VUAA1, TEVC, T80W): 0.23 µA
Activation of MhraOR5 [9]: not by VUAA1
